“Also recorded” adds a separate entry of the source. Read-outs that look alike come from different tables or passages of the source.
Experiments:
[1] = Multiple-dose subcutaneous injections, male C57BL/6J mice; format: in vivo; details: 1 mg/kg SC every 3 days
Experimental: In addition to single dose injections, the effects of repeated dosing of polyamides 77-80 in mice were examined. In this experiment, 8 week-old male C57BL/6J mice (n=3 per dosing group) were treated with 1 mg/kg of polyamides 77-80 by subcutaneous injection every 3 days, for a cycle of three injections and then sacrificed two days after the final injection (FIG. 31A). As in the single dosing experiments, two mice per group were subjected to histopathology analysis and all blood samples were sent for analysis. […] These mice were promptly euthanized.
(§1) Serum from treated animals were collected by retroorbital bleeding. […] All samples were sent for analysis at IDEXX-RADIL.

p53 target genes = experiment: Quantitative RT-PCR of p53 target genes in LNCaP cells; format: cell-based
Experimental: RNA was extracted using RNEasy columns (Qiagen) according to manufacturer's protocols. cDNA was generated from RNA by reverse transcriptase (Transcriptor First Strand cDNA kit, Roche). Quantitative real-time RT-PCR was performed using SYBR Green PCR Master Mix (Applied Biosystems) on an ABI 7300 instrument. mRNA was measured relative to B glucuronidase as an endogenous control.
The cells were then treated with 1, 3, and 10 μM of 78 for 72 h. Total cellular RNA was extracted using RNEasy columns (Qiagen) following the manufacturer's protocols. Isolated RNA was reverse transcribed with Transcriptor First Strand cDNA kit (Roche). Quantitative real-time PCR was performed using SYBR Green PCR Master Mix (Applied Biosystems) on an ABI 7300 instrument. Amplification of p21, IGFBP3, and GADD45A cDNA was measured relative to β-glucuronidase using previously published primers (24). Experiments were performed in biological replicates.

LNCaP xenografts = LNCaP xenografts in male NSG mice; format: in vivo; details: six injections
Experimental: All mice experiments were conducted under an approved protocol by the Institutional Animal Care and Use Committee of the California Institute of Technology. Male NOD scid gamma (NSG) mice were purchased from The Jackson Laboratory. The animals were individually caged and maintained on a standard light-dark cycle. NSG mice were engrafted with LNCaP cells (2.5 million cells) in a mixture of 1:1 media and matrigel in the left flank. Tumors were grown to ˜100 mm^3 (L×W^2) before beginning treatment with compound or vehicle. Py-Im polyamide 77 was administered once every 3 days in a 5% DMSO:PBS vehicle solution until the experiment endpoint.
To investigate if polyamide 77 could be detected in peripheral blood after SC injections, 120 nmol of 77 (in 5% DMSO/PBS) was injected into the right flank of four C57BL/6 mice. Blood was collected from anesthetized mice via retroorbital collection at 5 minutes, 4 h, and 12 h after injection, then processed by methods previously described and analyzed by HPLC (35). For measurement of serum PSA (KLK3) and uric acid, blood was collected from anesthetized mice via retroorbital collection at experimental endpoint and serum was separated from blood by centrifugation. Serum PSA (KLK3) was measured by ELISA (R&D systems) according to manufacturer's instructions. Uric acid was measured as described (36).
Tumors were resected immediately after euthanasia and fixed in neutral buffered formalin. Selected samples were embedded in paraffin, sectioned and stained with hematoxylin and eosin (H&E). Selected sections were assessed by deoxynucleotidyltransferase dUTP nick-end labeling (TUNEL) as described (45).
Mice experiments were conducted under an approved protocol by the Institutional Animal Care and Use Committee of the California Institute of Technology. Male C57BL6/J mice and male NSG mice were purchased from The Jackson Laboratory. All animals were maintained on a standard light-dark cycle. LNCaP cells (2.5 million cells) were engrafted in a mixture of 1:1 media and matrigel in the left flank of NSG mice. Tumors were allowed grow to ˜200 mm^3 (0.5×L×W^2) before treatment. Py-Im polyamide 78 was administered by SC injection once every 3 d at 1 mg/kg in a 20% (vol/vol) DMSO:Normal saline vehicle solution for 6 injections. Animals were sacrificed two days after the final injection. Animal weight and general health were monitored daily. Fourteen animals were used for each treatment group.

[2] = Six-injection regimen of 78 in healthy male C57BL/6J mice, serum chemistry and hematology; format: in vivo; details: SC 1 mg/kg, six injections
Experimental: To assess the toxicity of the treatment regimen in healthy animals, male C57BL/6J mice were treated with an identical regimen as the tumor-bearing mice and were sacrificed two days after the final injection. Because the liver and kidney were identified as the target organs of toxicity in our previous study, we assessed relevant serum markers for liver and kidney pathology (FIG. 33D). […] To examine if 78 has an effect on circulating blood counts, whole blood was sampled before treatment and at the time of sacrifice.
as §1

p53 = p53 protein ELISA in LNCaP cells; format: cell-based; details: polyamide 10 μM 72 hr; doxorubicin 1 μM 24 hr
Experimental: (§2) Cellular levels of RPB1 and p53 protein in LNCaP cells after treatment with 10 μM 3 for 72 h were determined by ELISA. Cells treated with DMSO vehicle and 1 μM doxorubicin for 24 h were used as control. Cellular RBP1 levels were determined by a RPB1 specific ELISA kit (Cusabio Life Sciences) according to manufacturer's instructions. Total cellular p53 protein level was determined with a pan-p53 ELISA kit (Roche) according to manufacturer's instructions. Assays were performed in biological triplicates.

LNCaP cells = experiment: Cell viability WST-1 assay; format: cell-based; details: 72 hr incubation; read-out: half maximal inhibitory concentration, viability of LNCaP cells
Experimental: LNCaP cells were plated in clear bottom 96 well plates at 5,000-7,500 cells per well. The cells were allowed to adhere for 24-36 h before compounds were added in fresh media. Cell viability was determined by the WST-1 assay (Roche) for 77 and 85 after 24 h or 72 h incubation with cells. Cells in cytotoxicity rescue experiments were treated with 85 alone or with 3 μM for 24 h.
LNCaP cells were plated in clear bottom 96-well plates at 5,000-7,500 cells per well and allowed to adhere for 36-48 h. Compounds were then added in fresh media. Cell metabolic activity was determined by the WST-1 assay (Roche) after 72-h incubation with cells. Quantification was performed on a Perkin Elmer Victor 3 plate reader. Assays were performed in biological triplicates.

[3] = Liver microsomal stability, human; details: 1 μM, Human, 1 hr at 37° C., 1 mg/ml microsomes
Experimental: (§3) Briefly, each polyamide was incubated with 1 mg/ml human or mouse microsomes at 37° C. The reaction was incubated in 100 mM KH2PO4, 2 mM NADPH, 3 mM MgCl2 at pH 7.4. Samples were also incubated in the absence of NADPH to detect NADPH-free degradation. After 60 min the samples were mixed with an equal volume of ice cold methanol stop solution. The mixture was allowed to sit on ice for at least 10 min and mixed with an equal volume of water. The samples were then centrifuged to remove the precipitates and the samples were analyzed by LC/MS/MS. Data represents % remaining by comparing with time zero concentration. The experiments were performed in duplicate.

[4] = Liver microsomal stability, mouse; details: 1 μM, Mouse, 1 hr at 37° C., 1 mg/ml microsomes
[5] = Escalating single dose subcutaneous injections, male C57BL/6J mice (weight, histopathology, serum)
RPB1 = RPB1 protein ELISA in LNCaP cells; format: cell-based
Experimental: as §2, with “Cellular levels of RPB1 and p53 protein in LNCaP cells after treatment with 10 μM 3 for 72 h were determined by ELISA.” left out

[6] = mouse, microsomes, 1 h, 1 μM, pH 7.4
[7] = human, microsomes, 1 h, 1 μM, pH 7.4
Experimental: as §3

With CC(=O)N[C@H](CCNC(=O)c1cc(NC(=O)c2cc(NC(=O)c3cc(NC(=O)c4nccn4C)cn3C)cn2C)cn1C)C(=O)Nc1cn(C)c(C(=O)Nc2cc(C(=O)Nc3cc(C(=O)Nc4cc(C(=O)NCCCN(C)CCCNC(=O)c5cccc(C(=O)O)c5)n(C)c4)n(C)c3)n(C)c2)n1 [Polyamide 78, ImPyPyPy-2-(R)^AcHNγ-ImPyPyPy-NHMe-IPA] the “liver and kidney histopathology” value [1] was “no histopathologic lesions consistent with toxicity”, the “liver and kidney serum markers” value [1] was “no histopathologic lesions consistent with toxicity or alterations in liver and kidney serum markers” and the “weight and physical morbidity” value ([1]; three injections) was “no loss in weight or physical morbidities”. The “induction of p53 target genes” value (p53 target genes) was “induced by 78 in a dose-dependent fashion”, the “T/C (tumor weight)” value (LNCaP xenografts; SC 1 mg/kg every three days) was 52.4% and the “weight loss and distress during xenograft treatment” value (LNCaP xenografts; SC 1 mg/kg) was “minimal weight loss and no signs of distress”. For the same compound, the circulating blood counts [2] was “No significant hematologic changes”, the “serum markers for liver and kidney pathology” value [2] was “no elevations in AST, ALT, total bilirubin, creatinine, or BUN” and the “cellular level of p53 protein” value (p53) was “increases”. For the same compound, the IC50 (LNCaP cells) was 2.1 µM, the “Mean remaining parent NADPH-free” value [3] was 94.9% and the “Mean remaining parent with NADPH” value [3] was 95.3%. For the same compound, the “Mean remaining parent NADPH-free” value [4] was 100%, the “Mean remaining parent with NADPH” value [4] was 97.3% and the “tolerability, behavior and morbidity after single SC dose” value ([5]; 1, 3, 10 mg/kg) was “no change in behavior and appearance”. For the same compound, the “overall toxicity / organ damage” value ([5]; single SC 1, 3, 10 mg/kg) was “no detectable toxicity at any dose level tested; also recorded: no detectable animal toxicity at 10 mg/kg”, the “serum kidney markers creatinine and BUN” value ([5]; single SC dose) was “no elevation of these markers at the dose levels tested” and the “serum liver markers AST, ALT, total bilirubin” value ([5]; single SC dose) was “no elevation of these markers at the dose levels tested”. The RPB1 levels (RPB1; 1 μM for 72 h as printed) was “reduced RPB1 levels” and the RPB1 protein (RPB1; polyamide 10 μM 72 hr, doxorubicin 1 μM 24 hr) was “decreases”.
In the case of CC(=O)CC(c1ccccc1)c1c(O)c2ccccc2oc1=O (stereo not drawn) [Warfarin], the “Mean remaining parent NADPH-free” value [6] is reported as 100%, the “Mean remaining parent with NADPH” value [6] is reported as 100% and the “Mean remaining parent NADPH-free” value [7] is reported as 100%. The “Mean remaining parent with NADPH” value [7] was 100%.

Source: patent US20170260169A1, “INHIBITORS FOR STEROID RESPONSE ELEMENTS AND RNA POLYMERASE II AND RELATED METHODS” (priority 2007, published 2017)
